Consider 3 compounds from publication PMC11360128, “Rigid Macrocycle Metal Complexes as CXCR4 Chemokine Receptor Antagonists: Influence of Ring Size” (Pharmaceutics, 2024).

For orientation: IC50 means the concentration needed to halve the response being measured. In general, CC50 refers to the concentration that lowers cell viability or growth by half.

For one data set, the system named is HIV-1 NL4-3 (X4). The experiment in a line: HIV infection assay, Tat-regulated luciferase reporter in TZM-bl cells, CXCR4-using strain. It is filed as cell-based. The following applies: replication of HIV-1 NL4-3 (X4) in TZM-bl cells, mean ± SEM, read-out: Anti-HIV Activity IC50 NL4-3 (X4). From the text:
(§1) Buffy coat preparations from healthy donors were obtained from the Blood Bank in Leuven, Belgium. For the chemokine binding studies, peripheral blood mononuclear cells (PBMCs) activated with phytohemagglutinin (PHA; Sigma, Belgium) were used. Human T-lymphocytic SUP-T1 cells and TZM-bl cells were obtained from the American Type Culture Collection (Rockville, MD) and maintained in RPMI-1640 supplemented with 10% foetal bovine serum (FBS). Human glioblastoma U87.MG and U87.CD4 cells were kindly provided by Dr. D. Littman and used to generate cells expressing CXCR4 or CCR5 [48]. The fluorescent chemokines CXCL12^AF647 and CCL5^AF647 were purchased from Almac. […]
(§2) TZM-bl cells were seeded in transparent 96-well plates at 1 × 10^4 cells per well in DMEM (Dulbecco’s modified Eagle medium; Life Technologies, Waltham, MA, USA) with 10% FBS and 10 mM HEPES. […] After 48 h of incubation, the assay plates were analysed. […] The luminescent signal of the lysed cell suspension was analysed in white 96-well plates on a Spectra-Max L luminescence microplate reader (Molecular Devices, Sunnyvale, CA, USA) after a 10 min incubation period in the dark. Luciferase activity induced by HIV-1 Tat protein expression was measured as an assessment of the amount of HIV replication. […]

A further data set deals with HIV-1 BaL (R5). Description: microbe, parasite or virus in culture. The following applies: read-out: Anti-HIV Activity IC50 BaL (R5).
From the text: as §1, §2

A short description of data set [1]: Cellular cytotoxicity, microscopic evaluation and MTS assay. It counts as cell-based, human. The following applies: human, PHA-stimulated PBMCs, MTS, read-out: Toxicity CC50 PMBCs. From the text:
(§3) Buffy coat preparations from healthy donors were obtained from the Blood Bank in Leuven, Belgium. For the chemokine binding studies, peripheral blood mononuclear cells (PBMCs) activated with phytohemagglutinin (PHA; Sigma, Belgium) were used. Human T-lymphocytic SUP-T1 cells and TZM-bl cells were obtained from the American Type Culture Collection (Rockville, MD) and maintained in RPMI-1640 supplemented with 10% foetal bovine serum (FBS). Human glioblastoma U87.MG and U87.CD4 cells were kindly provided by Dr. D. Littman and used to generate cells expressing CXCR4 or CCR5 [48]. The fluorescent chemokines CXCL12^AF647 and CCL5^AF647 were purchased from Almac. […] HIV-1 NL4-3 (CXCR4-using, X4) and HIV-1 BaL (CCR5-using, R5) were obtained through the AIDS Research and Reference Reagent Program (Division of AIDS, NIAID, NIH).
(§4) Cytotoxicity of the compounds was evaluated after 48 h of incubation at 37 °C in PHA-stimulated PBMCs (5 × 10^5 cells per well in culture medium). Each condition was tested in duplicate. Cytotoxicity was evaluated microscopically, and in addition, the cell viability was assessed using the colorimetric CellTiter 96 AQueous One Solution Cell Proliferation Assay (Promega, Fitchburg, WI, USA), which is based on the reduction of the tetrazolium salt MTS [3-(4,5-dimethylthiazol-2-yl)-5-(3-carboxymethoxyphenyl)-2-(4-sulfophenyl)-2H-tetrazolium] to formazan by metabolically active cells. Absorbance at 490 nm was measured with the Versa-Max ELISA microplate reader (Molecular Devices, Sunnyvale, CA, USA). The cytotoxic concentration 50 (CC50) of each compound was calculated based on the absorbance of negative (i.e., cells without compound) and positive (i.e., only culture medium) control samples.
(§5) The cellular cytotoxicity of all compounds was evaluated in PHA-stimulated PBMCs.
Background: Tetrazolium dyes change colour on reduction, which living cells bring about.

The test system of a further data set is PHA-stimulated PBMCs. The data set is described as above. It counts as cell-based, human. The following applies: 48 h, MTS, read-out: Toxicity CC50 PMBCs.
From the text: as §3, §4, §5

The target in data set [2] is T1, CCR5 (Homo sapiens, UniProt P51681).
T1 construct: endogenous in cells
The experiment in a line: CCL5^AF647 chemokine binding inhibition assay in PBMCs. The following applies: AF647-labelled CCL5 in PBMCs; mean ± SEM; read-out: Competition Binding Assay IC50 CCL5. As for the experimental part: Human PBMCs were washed once with assay buffer (Hanks’ balanced salt solution with 20 mM HEPES buffer and 0.2% bovine serum albumin, pH 7.4) and then incubated for 15 min at room temperature with the sample diluted in assay buffer at the indicated concentrations. Subsequently, CXCL12^AF647 (25 ng/mL) or CCL5^AF647 (50 ng/mL) was added to the compound-incubated cells. The cells were incubated for 30 min at room temperature. Thereafter, the cells were washed twice in assay buffer, fixed in 1% paraformaldehyde in PBS, and analysed on the FL4 channel of a FACSCalibur flow cytometer equipped with a 635 nm red diode laser (Becton Dickinson, San Jose, CA, USA). The percentage of inhibition of CXCL12^AF647 or CCL5^AF647 binding was calculated according to the formula: [1 − ((MFI − MFINC)/(MFIPC − MFINC))] × 100, where MFI is the mean fluorescence intensity of the cells incubated with CXCL12^AF647 or CCL5^AF647 in the presence of the inhibitor, MFINC is the mean fluorescence intensity measured in the negative control (i.e., autofluorescence of unlabelled cells), and MFIPC is the mean fluorescence intensity of the positive control (i.e., cells exposed to CXCL12^AF647 or CCL5^AF647 alone).
Binding affinity and selectivity towards CXCR4 were further evaluated through competition binding assays using natural chemokine ligands, tagged with Alexa Fluor 647, as previously reported. […]

Data set [3] addresses T1, CCR5. Description: CCL3L1-induced intracellular calcium mobilisation in CCR5-transfected U87 cells (FLIPR). It counts as cell-based. The settings on record: mean ± SEM, read-out: Ca^2+ Signalling Assay IC50 CCL3L1. As for the experimental part:
CXCR4- or CCR5-positive U87 glioblastoma/astrocytoma cells were loaded with the fluorescent calcium indicator Fluo-3 acetoxymethyl (Molecular Probes) at 4 µM in the assay buffer (Hanks’ balanced salt solution with 20 mM HEPES buffer and 0.2% bovine serum albumin, pH 7.4) for 45 min at room temperature. After thorough washing with the assay buffer, cells were pre-incubated for 10 min at 37 °C in the same buffer with the compounds of interest. The intracellular calcium mobilisation in response to CXCL12 (CXCR4 chemokine ligand) or CCL3L1 (CCR5 chemokine ligand) was then measured at 37 °C by monitoring the fluorescence as a function of time simultaneously in all the wells by using a fluorometric imaging plate reader (FLIPR; Molecular Devices, Sunnyvale, CA, USA).
The potency of the different metal complexes was investigated in a functional downstream receptor signalling assay. The inhibitory effect of the tested compounds was examined by Ca^2+ mobilisation studies with the natural ligands CXCL12 and CCL3L1 for the chemokine receptors CXCR4 and CCR5, respectively. The Ca^2+ ions released from the endoplasmic reticulum were measured over time in CXCR4- or CCR5-transfected U87 glioblastoma cells via their specific interaction with the fluorescent Ca^2+ indicator Fluo-3 [63].
(Calcium assays in cells follow changes in intracellular calcium, usually with a dye or a luminescent sensor.)

Read-outs that look alike come from different tables or passages of the source. Bounds are passed on as bounds.

T1 sequence (P51681 whole entry): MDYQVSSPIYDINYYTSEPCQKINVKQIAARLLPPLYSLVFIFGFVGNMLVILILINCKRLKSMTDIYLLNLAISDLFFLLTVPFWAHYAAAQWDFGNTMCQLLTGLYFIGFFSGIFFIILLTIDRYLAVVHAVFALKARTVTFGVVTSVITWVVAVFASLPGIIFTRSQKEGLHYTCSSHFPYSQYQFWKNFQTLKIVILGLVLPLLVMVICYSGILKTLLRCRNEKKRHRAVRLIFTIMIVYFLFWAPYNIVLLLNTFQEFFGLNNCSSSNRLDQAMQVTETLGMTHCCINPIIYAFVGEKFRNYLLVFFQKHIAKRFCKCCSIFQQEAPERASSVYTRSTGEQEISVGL

`c1cc(CN2CCCNCCNCCCNCC2)ccc1CN1CCCNCCNCCCNCC1` [AMD3100, reference compound]: the IC50 was 0.00042 ± 0.00014 µM with HIV-1 NL4-3 (X4) (Human immunodeficiency virus 1, NL43); more than 20 µM in the data set on HIV-1 BaL (R5) (Human immunodeficiency virus 1, BAL, TZM-bl); more than 1 µM on CCR5 [2]; more than 20 µM at CCR5 [3]. The CC50 at 48 h in data set [1] is not below 100 µM. Further, the CC50 in the data set on PHA-stimulated PBMCs was more than 100 µM.
Maraviroc [reference compound]: the IC50 is more than 20 µM in the data set with HIV-1 NL4-3 (X4) and 0.0029 ± 0.0012 µM in the data set on HIV-1 BaL (R5) (replication of HIV-1 BaL (R5) in TZM-bl cells, mean ± SEM).
In the case of `[Cu+2].[Cu+2].c1cc(CN2CCCNCCNCCCNCC2)ccc1CN1CCCNCCNCCCNCC1` [Cu2L^1], the CC50 in the data set with PHA-stimulated PBMCs is not below 100 µM.
